Reference: PMC11218446, “Antibacterial efficacy and membrane mechanism of action of the Serratia-derived non-ionic lipopeptide, serrawettin W2-FL10” (Microbiology Spectrum, 2024)

Tests used:
Escherichia coli = conditions: cited from earlier work
Source text: (§1) Key parameters contributing to the antimicrobial activity of lipopeptides include hydrophobicity and net charge ([5], [24]). Serrawettin W2-FL10 is a relatively small and moderately amphipathic lipopeptide with a neutral charge.

[1] = tested on: methicillin-resistant S. aureus (MRSA); conditions: cited from earlier work
Source text: The antimicrobial activity of the serrawettin W2-FI10 analog (i.e., C10H18O2-Leu-Ser-Thr-Phe-Ile), has been extensively investigated.

[2] = tested on: Chinese hamster ovarian (CHO) cell line; assay: Mammalian cell cytotoxicity, MTT assay; conditions: CHO cells, MTT, 48 h; reference drug
Experimental: To determine the biocompatibility of W2-FL10 as a potential therapeutic agent, the in vitro cytotoxicity of W2-FL10 against the CHO cell line ([50]) was determined over 48 h by the Drug Discovery and Development Centre at the University of Cape Town, as previously described by Mosmann ([51]). Briefly, W2-FL10 was prepared to a 10 mM stock solution in 100% DMSO and dilutions were prepared in growth media. The CHO cell line density of 10^5 cells/well in 96-well plates and allowed to attach for 24 h. Thereafter, the compound was added to the 96-well plates at various concentrations from 50 µM down to 16 nM and incubated for a further 48 h. At 44 h, MTT was added to the wells, and the plates were read 4 h later at 540 nm on a spectrophotometer. […] Finally, cell inhibition was plotted against concentration and the 50% lethal concentration (LC50) parameter and a minimum lethal concentration (MLC90) were obtained as described for the dose responses against bacterial targets above (equation 1).

L. monocytogenes B73 = conditions: cited from earlier work
Source text: as §1

Q: For gramicidin S, which ICF (Escherichia coli) is on record?
A: 5.7

Q: With “C10H18O2-Leu-Ser-Thr-Phe-Ile (lariat or depsi) [W2-FI10, serrawettin W2-FI10, serrawettin W2 analog, C10H18O2-Leu-Ser-Thr-Phe-Ile]” as the compound, how does the “concentration with inhibitory activity” value [1] read?
A: 4 µg/mL

Q: With `CC[C@H]1CN2CCc3cc(OC)c(OC)cc3[C@@H]2C[C@@H]1C[C@H]1NCCc2cc(OC)c(OC)cc21` [emetine, reference compound] as the compound, how does the LC50 [2] read?
A: approximately 40 nM

Q: What does the source list for tyrocidine C?
A: ICF (L. monocytogenes B73): 1.9; MIC (L. monocytogenes B73): 13 µM

Q: Which ICF (Escherichia coli) does the source give for PGla here?
A: 2.5
